Results: patent US20030099983A1, “Cyclic and substituted immobilized molecular synthesis” (Affymetrix, Inc., priority 1991, published 2003)
Like-named read-outs stand apart in the source and are kept apart here.

Tested on: monoclonal antibody D32.39
[1] = relative fluorescence intensity of the corresponding surface-immobilized peptide (N-acetylated, C-terminal amide link to surface)
[2] = truncated dynorphin peptides, surface-immobilized, N-acetylated, linked via C-terminal amide, D32.39 10 μg/ml 2 hours, ± SD of min. four replicates, […]

Procedure: Non-specific protein binding to the surface was blocked with 1% BSA/PBS/0.05% Tween 20. The array was incubated with the D32.39 antibody at a concentration of 10 μg/ml for 2 hours, followed by reaction with 10 μg/ml of FITC conjugated anti-mounse antibody (Sigma) for 2 hours at 20° C. Following extensive washing with buffer, the array was scanned in a confocal fluorescence microscope with 488 nm excitation from an argon ion laser (Spectra-Physics). […] The replicates were averaged, and the data sorted according to desired sequences.

Substance	Normalized Intensity (%) [2]	also measured
Ac-FLRRQFKVVT-OH	–	Normalized Intensity (%) [1]: 98%
Ac-QFKVVT-OH [Ac-QFKVVT-OH]	–	Normalized Intensity (%) [1]: 28%
Ac-RQFKVVT-OH [Ac-RQFKVVT-OH]	–	Normalized Intensity (%) [1]: 99%
Ac-RRQFKVVT-OH	–	Normalized Intensity (%) [1]: 99%
FKVV	10 ± 2%	–
FKVVT	13 ± 4%	–
FLRR	6 ± 3%	–
FLRRQ	8 ± 3%	–
FLRRQF	8 ± 3%	–
FLRRQFK	10 ± 3%	–
FLRRQFKV	14 ± 3%	–
FLRRQFKVV	37 ± 15%	–
FLRRQFKVVT	98 ± 1%	relative intensity (normalized fluorescence signal) (normalized 0 to 100% after background subtraction): about 100%
KVVT	11 ± 2%	–
LRRQ	10 ± 4%	–
LRRQF	10 ± 4%	–

Substance	Normalized Intensity (%) [2]	also measured
LRRQFK	12 ± 3%	–
LRRQFKV	16 ± 3%	–
LRRQFKVV	44 ± 12%	–
LRRQFKVVT	87 ± 13%	–
QFKV	11 ± 2%	–
QFKVV	17 ± 2%	–
QFKVVT	28 ± 3%	–
RQFK	13 ± 5%	–
RQFKV	16 ± 4%	–
RQFKVV	54 ± 11%	–
RQFKVVT	99 ± 1%	–
RRQF	11 ± 5%	–
RRQFK	12 ± 3%	–
RRQFKV	16 ± 3%	–
RRQFKVV	58 ± 10%	–
RRQFKVVT	99 ± 1%	–
